Patent US11136297B2, “Compositions and methods for treating cancer” (THE REGENTS OF THE UNIVERSITY OF CALIFORNIA, priority 2016, dated 2021)

Biological target: T1, H-Ras(M72C) GppNHp binding to Raf-1-RBD (Homo sapiens, UniProt P01112, M72C)
T1 construct: and H-Ras (residues 1-166) were transformed into Escherichia coli; His6; made in house; host or cells: Escherichia coli BL21(DE3)
Assay: Ras GppNHp in vitro pull down by His6-MBP-Raf-1-RBD
Settings: H-Ras(M72C) pre-labeled with compound
Experimental: Ras GppNHp In Vitro Pull Down Assay by His6-MBP-Raf-1-RBD. For each His6-MBP-Raf-1-RBD in vitro pull down the total volume was 500 μL. Each reaction had the following final composition: Either 20, 80, 200, 400, or 800 nM Ras GppNHp (from 0.2 mg/mL Ras stock), 75 nM BSA (2.5 μg, 5 μL of 0.5 mg/mL BSA stock), 200 nM of His6-MBP-Raf-1-RBD (5.3 μg, 1.2 μL of 4.38 mg/mL stock of His6-MBP-Raf-1-RBDwitt), and Raf Pull Down Buffer to volume (25 mM Tris (pH 7.2), 150 mM NaCl, 5 mM MgCl2, 1% NP-40, 5% glycerol, 20 mM imidazole). Samples were then mixed by gentle rotation at 4° C. for 30 min. While equilibrating, add 50 μL Ni-NTA slurry (Qiagen) to a cellulose acetate spin cup and spin at 5,000 rpm on a tabletop centrifuge for 30 seconds. Wash the beads with 400 μL of Raf Pull Down Buffer to wash away bead storage buffer. Before adding each pull down solution, take 10 μL and save as a loading control sample. To each spin cup filled with washed Ni-NTA beads, add the remaining equilibrated pull down solution, seal the spin cup with parafilm and let rotate at 4° C. for 30 more minutes. After mixing, centrifuge the sample for 30 seconds at 5,000 rpm. Toss flow through. Wash the beads X 5 with 400 μL of Raf Pull Down Buffer. After last wash, centrifuge one last time to remove any excess buffer stuck to the beads. […] Blots were read out using LICOR compatible secondary antibodies. […]

In the case of `COc1ccc(-n2ncc(C(=O)NCCCSSCCN(C)C)c2C(F)(F)F)cc1` [Compound 2C07, N-(3-((2-(dimethylamino)ethyl)disulfanyl)propyl)-1-(4-methoxyphenyl)-5-(trifluoromethyl)-1H-pyrazole-4-carboxamide], the “Raf-1-RBD binding (pull down), labeled vs unlabeled H-Ras(M72C)” value is reported as “no significant difference in Raf-1-RBD binding”.
